# According to BindingDB's records for doi:10.1111/j.1749-6632.1998.tb10185.x (Albany Medical College, 1998):
# pKi: −log10 of the molar value. “And” between values parts separate entries of the source, which are not always exact repeats. Identical values can stand only once.
# Target: T1, 5-hydroxytryptamine receptor 2C (Rattus norvegicus, UniProt P08909)
# T1 sequence (P08909 whole entry): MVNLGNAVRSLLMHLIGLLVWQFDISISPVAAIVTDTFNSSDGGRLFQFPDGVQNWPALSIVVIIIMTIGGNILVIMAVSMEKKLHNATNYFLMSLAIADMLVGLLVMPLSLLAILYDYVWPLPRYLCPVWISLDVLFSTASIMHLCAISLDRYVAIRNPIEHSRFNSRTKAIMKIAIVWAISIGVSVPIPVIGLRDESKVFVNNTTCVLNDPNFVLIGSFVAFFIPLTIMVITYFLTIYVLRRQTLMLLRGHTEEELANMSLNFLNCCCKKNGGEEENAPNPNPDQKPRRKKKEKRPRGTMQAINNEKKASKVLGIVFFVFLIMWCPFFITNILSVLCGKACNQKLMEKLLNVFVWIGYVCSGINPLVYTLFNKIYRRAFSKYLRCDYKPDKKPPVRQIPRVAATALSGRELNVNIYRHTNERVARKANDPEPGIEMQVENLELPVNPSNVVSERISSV
row,Compound,pKi
1,c1ccc2nc(N3CCNCC3)ccc2c1 [2-Piperazin-1-yl-quinoline (Quipazine)],6.80 and 5.87
2,NCCc1c[nH]c2ccc(C(N)=O)cc12 [[3H]-5-carboxamidotryptamine],5.24
3,"O=C(c1ccc(F)cc1)C1CCN(CCn2c(=O)[nH]c3ccccc3c2=O)CC1 [3-(2-{4-[(4-fluorophenyl)carbonyl]piperidin-1-yl}ethyl)-1,2,3,4-tetrahydroquinazoline-2,4-dione]",6.99 and 7.03
4,CC[C@@H](CO)NC(=O)[C@@H]1C=C2c3cccc4c3c(cn4C)C[C@H]2N(C)C1,9.10 and 9.00
